Usually pIC50 stands for the IC50 on a negative log10 scale, so that one unit is a factor of ten. Low values mean a large IC50, high ones a small IC50.

For the experiment, the target named is T1, Murine PKD1 kinase domain (Mus musculus, UniProt Q62101).
T1 construct: hexahistidine (pFastBac HTb leader) (N); made in house; host or cells: Sf9 insect cells, baculovirus (Bac-to-Bac HT, pFastBac HTb)
T1 sequence (Q62101 with tags, fused parts or gaps R683W): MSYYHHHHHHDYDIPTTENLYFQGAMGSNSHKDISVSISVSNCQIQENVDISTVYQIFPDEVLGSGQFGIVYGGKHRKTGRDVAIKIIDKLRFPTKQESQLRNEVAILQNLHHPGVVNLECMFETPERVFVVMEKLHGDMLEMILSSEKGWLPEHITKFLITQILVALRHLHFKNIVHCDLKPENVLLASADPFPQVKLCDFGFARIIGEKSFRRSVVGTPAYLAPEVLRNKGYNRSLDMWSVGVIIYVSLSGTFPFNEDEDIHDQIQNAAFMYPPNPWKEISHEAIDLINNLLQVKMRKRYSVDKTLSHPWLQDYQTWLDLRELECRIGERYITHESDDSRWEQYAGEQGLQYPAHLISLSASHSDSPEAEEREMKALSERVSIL
Nature of the experiment: PKD1 (Murine Kinase Domain) Enzyme Activity Assay (IMAP fluorescence polarisation). It counts as biochemical. As to conditions: 10 μM ATP, 60 minutes, room temperature. An excerpt:
The DNA sequence corresponding to murine PKD1 (see FIG. 1) was inserted into pFastBAc Htb (Invitrogen, USA) at BamH1 and EcoR1 sites using standard molecular biology techniques.
The PKD1 described above was expressed as a hexahistidine tagged protein construct using a commercially available baculoviral expression system that induces protein production in insect cell culture (Bac-to-Bac® HT Baculovirus Expression System, Invitrogen). Protein was typically expressed by inoculating 1 L of sf9 cells with a genetically modified baculovirus containing the gene for the kinase domain of PKD1. Sf9 cells were obtained from ICR Ltd.
Purification of PKD1 was achieved by standard chromatographic procedures. Capture from crude centrifuged lysed cell supernatant was achieved using metal affinity chromatography (GE Healthcare Life Sciences, HiTrap Chelating chromatography column), and fractions showing PKD1 (as assessed by gel electrophoresis and western blot) were further purified by a single polish purification step performed using a mono Q anion exchange chromatography system (GE Healthcare Life Sciences, HiTrap HP Q column). […] This protocol describes the method for screening compounds as inhibitors of Protein Kinase D activity in a 384 well microplate format fluorescence polarisation IMAP assay performed using the Biomek FX.
Kinase Enzyme: Murine PKD1 kinase domain at ˜100 μg/mL, was purified from baculovirus (as described above), obtained from aliquots stored at −70° C. PKD was prepared with a final concentration of 0.1 μg/mL by diluting 1:300 in Reaction Buffer (30 μL per 9 mL-5 mL per plate with an additional 4 mL dead volume) and vortexing prior to use. It was necessary to check this concentration regularly in case of enzyme degradation.
(also known as MAPKAP K2 substrate) was obtained from Molecular Devices (Product code R7127). It was used at 300 nM by diluting 20 μM stock 1:66 in Kinase/Reaction Buffer (135 μL per 9 mL; 75 μL per 5 mL Reaction Buffer for blank wells requiring <1 mL per place with an additional 4 mL dead volume).
A 1 mM ATP stock in Reaction Buffer was prepared from a 10 mM stock in 20 mM NaOH and stored as aliquots at −70° C. It was used at 40 μM by diluting 1 mM stock 1:25 in Reaction Buffer (240 μL per 6 mL-2 mL per plate with an additional 4 mL dead volume) and vortexing prior to use.
IMAP Reagents: IMAP Binding Reagent (product code R7207) and Binding Buffer (product code R7208) were obtained from Molecular Devices and stored at +4° C. The beads were gently re-suspended before diluting by 1:400 in buffer (Binding Buffer is supplied as a 5× stock and so was diluted with water prior to use) and then vortexing before addition to wells. 16 mL water with 4 mL Binding Buffer and 50 μL Binding Reagent were used per plate (17 mL per plate with an additional 3 mL dead volume).
13 μL Substrate in Reaction Buffer was added to ‘blank’ wells to give 200 nM reaction concentration. […] 2 μL 10% DMSO/water was added to ‘blank’ and ‘control’ wells. 5 μL ATP in Reaction Buffer was added to all wells to give 10 μM reaction concentration. The reaction mixture was then incubated at room temperature for 60 minutes. The incubation period was followed by the addition of 40 μL IMAP Binding Reagent in Binding Buffer to all wells. The reaction was then further incubated at room temperature for […].
Percentage inhibition was calculated based on activity of the test sample minus the average values in the blank wells relative to the average values measured in control wells minus the average values in the blank wells.
IC50 values were calculated from 10 point dose sigmoid ‘dose-response’ curves using Xlfit software (IDBS inc, USA). Data were fitted to a 4 parameter logistic model/sigmoidal dose response:
where: A=fit minimum (locked to 0); B=fit maximum (locked to 100); C=fit midpoint (pre-fit to 1); D=slope at linear portion of curve, hillslope (pre-fit to 0.1)
(In general: Polarisation of emitted light reports the rotation of a fluorescent probe.)

pIC50: −log10 of the molar value.

`COc1cc(-c2cncc(-c3cccc(C(N)=O)c3)n2)ccc1O` [X-018, 3-[6-(4-Hydroxy-3-methoxy-phenyl)-pyrazin-2-yl]-benzamide] showed a pIC50 of 5.00 to 6.00.

Consider `CN(C)CCNC(=O)c1cccc(-c2cnc(N)c(-c3ccc4[nH]ccc4c3)c2)c1` [Y-026, 3-[6-Amino-5-(1H-indol-5-yl)-pyridin-3-yl]-N-(2-dimethylamino-ethyl)-benzamide], for which the pIC50 is > 6.00.

The compound `COCc1cccc(-c2cc(-c3cccc(C(=O)NCCN(C)C)c3)cnc2N)c1` [Y-047, 3-[6-Amino-5-(3-methoxymethyl-phenyl)-pyridin-3-yl]-N-(2-dimethylamino-ethyl)-benzamide] had a pIC50 of 5.00 to 6.00.

As to `COc1ccccc1-c1cc(-c2cccc(C(N)=O)c2)cnc1N` [Y-002, 3-[6-Amino-5-(2-methoxy-phenyl)-pyridin-3-yl] benzamide], the pIC50 was 5.00 to 6.00.

With `CN(C)CCNC(=O)c1cccc(-c2cnc(N)c(-c3cc4ccccc4s3)c2)c1` [Y-011, 3-(6-Amino-5-benzo[b]thiophen-2-yl-pyridin-3-yl)-N-(2-dimethylamino-ethyl)-benzamide], the pIC50 was > 6.00.

On to `COc1ccc(-c2cc(-c3cccc(C(=O)NCCN(C)C)c3)cnc2N)cc1F` [Y-043, 3-[6-Amino-5-(3-fluoro-4-methoxy-phenyl)-pyridin-3-yl]-N-(2-dimethylamino-ethyl)-benzamide], for which the pIC50 was > 6.00.

As for `CN(C)CCNC(=O)c1cccc(-c2cnc(N)c(-c3ccc(OC4CCCCO4)cc3)c2)c1` (stereo not shown) [Y-065, 3-{6-Amino-5-[4-(tetrahydro-pyran-2-yloxy)-phenyl]-pyridin-3-yl}-N-(2-dimethylamino-ethyl)-benzamide], the pIC50 is > 6.00.

Consider `CN(C)CCNC(=O)c1cccc(-c2cnc(N)c(-c3cccs3)c2)c1` [Y-024, 3-(6-Amino-5-thiophen-2-yl-pyridin-3-yl)-N-(2-dimethylamino-ethyl)-benzamide], for which the pIC50 was > 6.00.

Take `CN(C)CCNC(=O)c1cccc(-c2cnc(N)c(-c3cccc4cccnc34)c2)c1` [Y-023, 3-(6-Amino-5-quinolin-8-yl-pyridin-3-yl)-N-(2-dimethylamino-ethyl)-benzamide]: the pIC50 is > 6.00.

For `CN(C)CCNC(=O)c1cccc(-c2cncc(-c3cccc4c3oc3ccccc34)n2)c1` [X-013, 3-(6-Dibenzofuran-4-yl-pyrazin-2-yl)-N-(2-dimethylamino-ethyl)-benzamide], the pIC50 was > 6.00.

Consider `NC(=O)c1cccc(-c2cnc(N)c(-c3cccc4ncccc34)c2)c1` [Y-021, 3-(6-Amino-5-quinolin-5-yl-pyridin-3-yl)-benzamide], for which the negative logarithm of the IC50 (pIC50) was 5.00 to 6.00.

Consider `CN(C)CCNC(=O)c1cccc(-c2cnc(N)c(-c3cc4ccccc4o3)c2)c1` [Y-012, 3-(6-Amino-5-benzofuran-2-yl-pyridin-3-yl)-N-(2-dimethylamino-ethyl)-benzamide], for which the pIC50 was > 6.00.

Compound `CN(C)CCNC(=O)c1cccc(-c2cnc(N)c(-c3cccc(S(C)(=O)=O)c3)c2)c1` [Y-072, 3-[6-Amino-5-(3-methanesulfonyl-phenyl)-pyridin-3-yl]-N-(2-dimethylamino-ethyl)-benzamide] showed a pIC50 of 5.00 to 6.00.

As for `CN(C)CCCNC(=O)c1cccc(-c2cncc(-c3ccc(O)cc3)n2)c1` [X-004, N-(3-Dimethylamino-propyl)-3-[6-(4-hydroxy-phenyl)-pyrazin-2-yl]-benzamide], the negative-log IC50 (pIC50) was > 6.00.

With `COc1cc(-c2cncc(-c3cccc(C(=O)NC4CCN(C)CC4)c3)n2)ccc1O` [X-019, 3-[6-(4-Hydroxy-3-methoxy-phenyl)-pyrazin-2-yl]-N-(1-methyl-piperidin-4-yl)-benzamide], the pIC50 is > 6.00.

`CN(C)CCNC(=O)c1cccc(-c2cnc(N)c(-c3ccnc(O)c3)c2)c1` [Y-071, 3-(2-Amino-2′-hydroxy-[3,4′]bipyridinyl-5-yl)-N-(2-dimethylamino-ethyl)-benzamide]: the negative-log IC50 (pIC50) is > 6.00.

Turning to `Cc1ccc(-c2cc(-c3cccc(C(=O)NCCN(C)C)c3)cnc2N)cc1F` [Y-044, 3-[6-Amino-5-(3-fluoro-4-methyl-phenyl)-pyridin-3-yl]-N-(2-dimethylamino-ethyl)-benzamide], the pIC50 is > 6.00.

With `CN(C)CCNC(=O)c1cccc(-c2cnc(N)c(-c3cccc(OC(F)(F)F)c3)c2)c1` [Y-050, 3-[6-Amino-5-(3-trifluoromethoxy-phenyl)-pyridin-3-yl]-N-(2-dimethylamino-ethyl)-benzamide], the pIC50 is > 6.00.

Regarding `CN(C)CCNC(=O)c1cccc(-c2cnc(N)c(-c3cccc4ccccc34)c2)c1` [Y-019, 3-(6-Amino-5-naphthalen-1-yl-pyridin-3-yl)-N-(2-dimethylamino-ethyl)-benzamide], the negative-log IC50 (pIC50) was > 6.00.

In the case of `CCN(CC)CCNC(=O)c1cccc(-c2cncc(-c3ccc(O)c(OC)c3)n2)c1` [X-022, N-(2-Diethylamino-ethyl)-3-[6-(4-hydroxy-3-methoxy-phenyl)-pyrazin-2-yl]-benzamide], the pIC50 was > 6.00.

With `CN(C)CCNC(=O)c1cccc(-c2cnc(N)c(-c3ccc4cc(O)ccc4c3)n2)c1` [X-023, 3-[5-Amino-6-(6-hydroxy-naphthalen-2-yl)-pyrazin-2-yl]-N-(2-dimethylamino-ethyl)-benzamide], the pIC50 is > 6.00.

In the case of `CN(C)CCNC(=O)c1cccc(-c2cnc(N)c(-c3ccc(F)c(F)c3)c2)c1` [Y-033, 3-[6-Amino-5-(3,4-difluoro-phenyl)-pyridin-3-yl]-N-(2-dimethylamino-ethyl)-benzamide], the negative logarithm of the IC50 (pIC50) is > 6.00.

With `CN(C)CCNC(=O)c1cccc(-c2cnc(N)c(-c3ccc(OCc4ccccc4)cc3)c2)c1` [Y-051, 3-[6-Amino-5-(4-benzyloxy-phenyl)-pyridin-3-yl]-N-(2-dimethylamino-ethyl)-benzamide], the negative-log IC50 (pIC50) was > 6.00.

For `CN(C)CCNC(=O)c1cccc(-c2cnc(N)c(-c3ccc(Cl)c(F)c3)c2)c1` [Y-052, 3-[6-Amino-5-(4-chloro-3-fluoro-phenyl)-pyridin-3-yl]-N-(2-dimethylamino-ethyl)-benzamide], the pIC50 was > 6.00.

Regarding `COc1cc(-c2cc(-c3cccc(C(=O)NCCN(C)C)c3)cnc2N)cc(OC)c1OC` [Y-088, 3-[6-Amino-5-(3,4,5-trimethoxy-phenyl)-pyridin-3-yl]-N-(2-dimethylamino-ethyl)-benzamide], the pIC50 was > 6.00.

For the compound `CN(C)CCNC(=O)c1cccc(-c2cncc(-c3ccc(CO)cc3)n2)c1` [X-005, N-(2-Dimethylamino-ethyl)-3-[6-(4-hydroxymethyl-phenyl)-pyrazin-2-yl]-benzamide], the pIC50 is > 6.00.

Take `CN(C)CCNC(=O)c1cccc(-c2cnc(N)c(-c3ccnc(Cl)c3)c2)c1` [Y-085, 3-(2-Amino-2′-chloro-[3,4′]bipyridinyl-5-yl)-N-(2-dimethylamino-ethyl)-benzamide]: the negative logarithm of the IC50 (pIC50) was > 6.00.

Take `CN(C)CCNC(=O)c1cccc(-c2cnc(N)c(-c3cccc(Cl)c3)c2)c1` [Y-040, 3-[6-Amino-5-(3-chloro-phenyl)-pyridin-3-yl]-N-(2-dimethylamino-ethyl)-benzamide]: the pIC50 was > 6.00.

For the origin of these results see patent US20110098325A1, “PYRIDINE BENZAMIDES AND PYRAZINE BENZAMIDES USED AS PKD INHIBITORS” (CANCER RESEARCH TECHNOLOGY LIMITED, priority 2006, published 2011).
